Test results taken from patent US3984547A, “Veterinary feedstuffs” (Bayer Aktiengesellschaft, priority 1971, dated 1976).
≈ marks a conversion by molar mass, not a printed value. Read-outs that look alike come from different tables or passages of the source.

What was measured:
[1] = test system: Pseudomonas aeruginosa Bonn; assay: MIC in vitro, plate test (agar), Table 1; type: cell-based; conditions: about 37° C, readings 24 and 48 h
Description: (§1) The minimum inhibitory concentrations in vitro for some of the new compounds shown in Table 1 (MIC) were determined by the plate test in an agar medium of the following composition: |proteose peptone 10.0 g per liter |5.1 × 10^3 germs were inoculated per plate. […]. Readings were taken after 24 and 48 hours, and the incubation temperature was about 37° C.

Escherichia coli A 261 [2] = assay: MIC in vitro, plate test (agar), Table 1; type: cell-based; conditions: A261, about 37° C, readings 24 and 48 h
Description: as §1

Escherichia coli C 165 [3] = assay: MIC in vitro, plate test (agar), Table 1; type: cell-based; conditions: C165, about 37° C, readings 24 and 48 h
Description: as §1

Klebsiella pneumonia 63 = assay: MIC in vitro, plate test (agar), Table 1; type: cell-based; conditions: Klebsiella pneumoniae, about 37° C, readings 24 and 48 h
Description: as §1

[4] = test system: Kletosiella pneumonia 8085; assay: MIC in vitro, plate test (agar), Table 1; type: cell-based; conditions: about 37° C, readings 24 and 48 h
Description: as §1

Proteus vulgaris species = assay: MIC in vitro, plate test (agar), Table 1; type: cell-based; conditions: about 37° C, readings 24 and 48 h
Description: as §1

[5] = test system: Pseudomonas aeruginosa Walter; assay: MIC in vitro, plate test (agar), Table 1; type: cell-based; conditions: about 37° C, readings 24 and 48 h
Description: as §1

[6] = test system: Staphylococcus aureus 133; assay: MIC in vitro, plate test (agar), Table 1; type: cell-based; conditions: about 37° C, readings 24 and 48 h
Description: as §1

Streptococcus pyogenes W = assay: MIC in vitro, plate test (agar), Table 1; type: cell-based; conditions: about 37° C, readings 24 and 48 h
Description: as §1

[7] = test system: Corynebacterium diphteriae gravis; assay: MIC, series dilution test (complete medium), Table 2; type: cell-based; conditions: 37° C, 18, 24 and 48 h, read-out: Minimum inhibitory concentration (MIC)
Description: (§2) Minimum inhibitory concentration (MIC) in γ/ml of medium, measured by the series dilution test (complete medium), incubation temperatures: 37° C, determination of the MIC after 18, 24 and 48 hours.

Escherichia coli 14 = assay: as above; type: cell-based; conditions: 37° C, 18, 24 and 48 h, read-out: Minimum inhibitory concentration (MIC)
Description: as §2

Escherichia coli 183/58 = assay: as above; type: cell-based; conditions: 37° C, 18, 24 and 48 h, read-out: Minimum inhibitory concentration (MIC)
Description: as §2

Escherichia coli 2 = assay: as above; type: cell-based; conditions: 37° C, 18, 24 and 48 h, read-out: Minimum inhibitory concentration (MIC)
Description: as §2

Escherichia coli 55 B 5 = assay: as above; type: cell-based; conditions: 55B5, 37° C, 18, 24 and 48 h, read-out: Minimum inhibitory concentration (MIC)
Description: as §2

Escherichia coli A 261 [8] = assay: as above; type: cell-based; conditions: A261, 37° C, 18, 24 and 48 h, read-out: Minimum inhibitory concentration (MIC)
Description: as §2

Escherichia coli C 165 [9] = assay: as above; type: cell-based; conditions: C165, 37° C, 18, 24 and 48 h, read-out: Minimum inhibitory concentration (MIC)
Description: as §2

Klebsiella 63 = assay: as above; type: cell-based; conditions: 37° C, 18, 24 and 48 h, read-out: Minimum inhibitory concentration (MIC)
Description: as §2

Klebsiella ATCC 10031 = assay: as above; type: cell-based; conditions: ATCC10031, 37° C, 18, 24 and 48 h, read-out: Minimum inhibitory concentration (MIC)
Description: as §2

Klebsiella K 10 = assay: as above; type: cell-based; conditions: K10, 37° C, 18, 24 and 48 h, read-out: Minimum inhibitory concentration (MIC)
Description: as §2

[10] = test system: Mycobacterium tuberculosis H 37 RV; assay: as above; type: cell-based; conditions: H37RV, 37° C, 18, 24 and 48 h, read-out: Minimum inhibitory concentration (MIC)
Description: as §2

Mycoplasma gallisepticum [11] = assay: as above; type: cell-based; conditions: Mycoplasmoides gallisepticum, 37° C, 18, 24 and 48 h, read-out: Minimum inhibitory concentration (MIC)
Description: as §2

[12] = test system: Neisseria catharalis N 1/41; assay: as above; type: cell-based; conditions: N1/41, 37° C, 18, 24 and 48 h, read-out: Minimum inhibitory concentration (MIC)
Description: as §2

Proteus mirabilis 2935 = assay: as above; type: cell-based; conditions: 37° C, 18, 24 and 48 h, read-out: Minimum inhibitory concentration (MIC)
Description: as §2

Proteus mirabilis G = assay: as above; type: cell-based; conditions: 37° C, 18, 24 and 48 h, read-out: Minimum inhibitory concentration (MIC)
Description: as §2

Proteus vulgaris 1017 = assay: as above; type: cell-based; conditions: 37° C, 18, 24 and 48 h, read-out: Minimum inhibitory concentration (MIC)
Description: as §2

Proteus vulgaris 3400 = assay: as above; type: cell-based; conditions: 37° C, 18, 24 and 48 h, read-out: Minimum inhibitory concentration (MIC)
Description: as §2

Pseudomonas aeruginosa B = assay: as above; type: cell-based; conditions: 37° C, 18, 24 and 48 h, read-out: Minimum inhibitory concentration (MIC)
Description: as §2

Pseudomonas aeruginosa M = assay: as above; type: cell-based; conditions: 37° C, 18, 24 and 48 h, read-out: Minimum inhibitory concentration (MIC)
Description: as §2

Pseudomonas aeruginosa W = assay: as above; type: cell-based; conditions: 37° C, 18, 24 and 48 h, read-out: Minimum inhibitory concentration (MIC)
Description: as §2

[13] = test system: Salmonella paratyphii BB II; assay: as above; type: cell-based; conditions: 37° C, 18, 24 and 48 h, read-out: Minimum inhibitory concentration (MIC)
Description: as §2

[14] = test system: Staphylococcus aureus 133; assay: as above; type: cell-based; conditions: 37° C, 18, 24 and 48 h, read-out: Minimum inhibitory concentration (MIC)
Description: as §2

[15] = test system: Staphylococcus aureus 7705; assay: as above; type: cell-based; conditions: 37° C, 18, 24 and 48 h, read-out: Minimum inhibitory concentration (MIC)
Description: as §2

[16] = test system: Staphylococcus aureus BRL; assay: as above; type: cell-based; conditions: 37° C, 18, 24 and 48 h, read-out: Minimum inhibitory concentration (MIC)
Description: as §2

[17] = test system: Streptococcus faecalis ATCC 13; assay: as above; type: cell-based; conditions: Enterococcus faecalis, ATCC13, 37° C, 18, 24 and 48 h, read-out: Minimum inhibitory concentration (MIC)
Description: as §2

[18] = test system: Streptococcus faecalis ATCC 8564; assay: as above; type: cell-based; conditions: Enterococcus faecalis, ATCC8564, 37° C, 18, 24 and 48 h, read-out: Minimum inhibitory concentration (MIC)
Description: as §2

[19] = test system: Streptococcus faecalis ATCC 8580; assay: as above; type: cell-based; conditions: Enterococcus faecalis, ATCC8580, 37° C, 18, 24 and 48 h, read-out: Minimum inhibitory concentration (MIC)
Description: as §2

[20] = test system: Streptococcus faecalis ATCC 8698; assay: as above; type: cell-based; conditions: Enterococcus faecalis, ATCC8698, 37° C, 18, 24 and 48 h, read-out: Minimum inhibitory concentration (MIC)
Description: as §2

[21] = test system: Streptococcus faecalis ATCC 8699; assay: as above; type: cell-based; conditions: Enterococcus faecalis, ATCC8699, 37° C, 18, 24 and 48 h, read-out: Minimum inhibitory concentration (MIC)
Description: as §2

[22] = test system: Streptococcus faecalis ATCC 8711; assay: as above; type: cell-based; conditions: Enterococcus faecalis, ATCC8711, 37° C, 18, 24 and 48 h, read-out: Minimum inhibitory concentration (MIC)
Description: as §2

[23] = test system: Streptococcus faecalis ATCC 9700; assay: as above; type: cell-based; conditions: Enterococcus faecalis, ATCC9700, 37° C, 18, 24 and 48 h, read-out: Minimum inhibitory concentration (MIC)
Description: as §2

[24] = test system: Streptococcus faecalis ATCC B. H.; assay: as above; type: cell-based; conditions: Enterococcus faecalis, 37° C, 18, 24 and 48 h, read-out: Minimum inhibitory concentration (MIC)
Description: as §2

[25] = test system: Streptococcus faecalis ATCC Blaschke; assay: as above; type: cell-based; conditions: Enterococcus faecalis, 37° C, 18, 24 and 48 h, read-out: Minimum inhibitory concentration (MIC)
Description: as §2

[26] = test system: Streptococcus faecalis ATCC durans; assay: as above; type: cell-based; conditions: Enterococcus faecalis, 37° C, 18, 24 and 48 h, read-out: Minimum inhibitory concentration (MIC)
Description: as §2

[27] = test system: Streptococcus faecalis ATCC liquef.; assay: as above; type: cell-based; conditions: Enterococcus faecalis, 37° C, 18, 24 and 48 h, read-out: Minimum inhibitory concentration (MIC)
Description: as §2

[28] = test system: Streptococcus faecalis ATCC species; assay: as above; type: cell-based; conditions: Enterococcus faecalis, 37° C, 18, 24 and 48 h, read-out: Minimum inhibitory concentration (MIC)
Description: as §2

Mycoplasma gallisepticum [29] = assay: MIC, series dilution test, measured in a PPLO medium, Table 2; type: cell-based; conditions: Mycoplasmoides gallisepticum, 37° C, 18, 24 and 48 h, read-out: Minimum inhibitory concentration (MIC)
Description: as §2
(§3) *)measured in a PPLO medium

Mycoplasma granularum = assay: as above; type: cell-based; conditions: Acholeplasma granularum, 37° C, 18, 24 and 48 h, read-out: Minimum inhibitory concentration (MIC)
Description: as §2, §3

Escherichia coli C 165 [30] = assay: ED100 in mice after intraperitoneal infection, Table 3; type: in vivo; conditions: read-out: effective 100% dose (ED100)
Description: (§4) In animal experiments on mice, the effective 100% dose (ED100) in mg/Kg was determined for certain compounds of the invention after intraperitoneal infection and subcutaneous (s.c.) or oral (p.o.) administration of the preparation.

[31] = test system: Staphylococcus aureus 133; assay: as above; type: in vivo; conditions: read-out: effective 100% dose (ED100)
Description: as §4

## NN=Cc1c(C(=O)O)[n+]([O-])c2ccccc2[n+]1[O-] [Example 10]
[1]
  MIC: 100 µg/mL (≈ 403 µM)

## COC(=O)NN=Cc1c(C(=O)O)[n+]([O-])c2ccccc2[n+]1[O-] [Example 13]
Escherichia coli A 261 [2]
  MIC: 20 µg/mL (≈ 65.3 µM)
Escherichia coli C 165 [3]
  MIC: 50 µg/mL (≈ 163 µM)
Klebsiella pneumonia 63
  MIC: 100 µg/mL (≈ 327 µM)
[4]
  MIC: 20 µg/mL (≈ 65.3 µM)
Proteus vulgaris species
  MIC: 10 µg/mL (≈ 32.7 µM)
[1]
  MIC: 100 µg/mL (≈ 327 µM)
[5]
  MIC: 100 µg/mL (≈ 327 µM)
[6]
  MIC: 10 µg/mL (≈ 32.7 µM)
Streptococcus pyogenes W
  MIC: 100 µg/mL (≈ 327 µM)
[7]
  MIC: 5 to 10 µg/mL (≈ 16.3 to 32.7 µM)
Escherichia coli 14
  MIC: 12 to 25 µg/mL (≈ 39.2 to 81.6 µM)
Escherichia coli 183/58
  MIC: 6 to 12 µg/mL (≈ 19.6 to 39.2 µM)
Escherichia coli 2
  MIC: 25 to 50 µg/mL (≈ 81.6 to 163 µM)
Escherichia coli 55 B 5
  MIC: 3 to 6 µg/mL (≈ 9.8 to 19.6 µM)
Escherichia coli A 261 [8]
  MIC: 25 to 50 µg/mL (≈ 81.6 to 163 µM)
Escherichia coli C 165 [9]
  MIC: 50 to 100 µg/mL (≈ 163 to 327 µM)
Klebsiella 63
  MIC: 50 µg/mL (≈ 163 µM)
Klebsiella ATCC 10031
  MIC: 1 to 2 µg/mL (≈ 3.27 to 6.53 µM)
Klebsiella K 10
  MIC: 50 µg/mL (≈ 163 µM)
[10]
  MIC: 40 µg/mL (≈ 131 µM)
Mycoplasma gallisepticum [11]
  MIC: 6 µg/mL (≈ 19.6 µM)
[12]
  MIC: 6 µg/mL (≈ 19.6 µM)
Proteus mirabilis 2935
  MIC: 12 µg/mL (≈ 39.2 µM)
Proteus mirabilis G
  MIC: 12 µg/mL (≈ 39.2 µM)
Proteus vulgaris 1017
  MIC: 17 µg/mL (≈ 55.5 µM)
Proteus vulgaris 3400
  MIC: 50 µg/mL (≈ 163 µM)
Pseudomonas aeruginosa B
  MIC: 25 µg/mL (≈ 81.6 µM)
Pseudomonas aeruginosa M
  MIC: 25 µg/mL (≈ 81.6 µM)
Pseudomonas aeruginosa W
  MIC: 400 µg/mL (≈ 1310 µM)
[13]
  MIC: 12 µg/mL (≈ 39.2 µM)
[14]
  MIC: 1 µg/mL (≈ 3.27 µM)
[15]
  MIC: 12 µg/mL (≈ 39.2 µM)
[16]
  MIC: 12 µg/mL (≈ 39.2 µM)
[17]
  MIC: 25 µg/mL (≈ 81.6 µM)
[18]
  MIC: 100 µg/mL (≈ 327 µM)
[19]
  MIC: 50 µg/mL (≈ 163 µM)
[20]
  MIC: 100 µg/mL (≈ 327 µM)
[21]
  MIC: 100 µg/mL (≈ 327 µM)
[22]
  MIC: 50 µg/mL (≈ 163 µM)
[23]
  MIC: 50 µg/mL (≈ 163 µM)
[24]
  MIC: 100 µg/mL (≈ 327 µM)
[25]
  MIC: 6 to 25 µg/mL (≈ 19.6 to 81.6 µM)
[26]
  MIC: 25 µg/mL (≈ 81.6 µM)
[27]
  MIC: 50 µg/mL (≈ 163 µM)
[28]
  MIC: 100 µg/mL (≈ 327 µM)
Mycoplasma gallisepticum [29]
  MIC: 6 µg/mL (≈ 19.6 µM)
Mycoplasma granularum
  MIC: 3 µg/mL (≈ 9.8 µM)
Escherichia coli C 165 [30]; C165, oral (p.c. [sic])
  ED100: 25 mg/kg
Escherichia coli C 165 [30]; C165, sc, s.c.
  ED100: 25 mg/kg
[31]; Staphylococcus aureus, 133, oral (p.c. [sic])
  ED100: 50 mg/kg
[31]; Staphylococcus aureus, 133, sc, s.c.
  ED100: 25 mg/kg
